Results published in patent publication US9149489B2, “Inhibitors of glycolysis useful in the treatment of brain tumors” (Board of Regents, University of Texas System, priority 2006, dated 2015).
Like-named read-outs stand apart in the source and are kept apart here.

Tests used:
orthotopic glioma model = assay: Orthotopic glioma model, antitumor activity in vivo; conditions: compared with temozolomide
U87 glioblastoma cells [1] = assay: U87 cell viability assay with co-treatment by D-glucose, D-mannose or D-galactose (competition); format: cell-based, human; conditions: for Viability Protection by D-Mannose Under Hypoxia (IC50 shift) / Viability Protection by D-Mannose Under Normoxia (IC50 shift): co-treatment with 0.1 mM of D-mannose; for Viability Protection by D-Galactose Under Hypoxia (IC50 shift) / Viability Protection by D-Galactose Under Normoxia (IC50 shift): co-treatment with 5 mM of D-galactose; for Viability Protection by D-Glucose Under Hypoxia (IC50 shift) / Viability Protection by D-Glucose Under Normoxia (IC50 shift): co-treatment with 5 mM of D-glucose
Protocol: (§1) Cell viability experiments were carried out in U87 glioblastoma cells with 8000 cells/well in flat bottom 96 well plates. The cells were grown in low glucose (5.4 mM) DMEM/F12 media with 10% FBS and antibiotics. 24 hours after plating, cells were treated with increasing concentration of 2-deoxy-2,2-difluoro-D-arabino-hexopyranose (DFG) for 72 hours in normoxic (21% O2) or hypoxic (0.1% O2) conditions. In addition, to test the ability of monosachamides to compete with DFG in inhibiting glycolysis and glycosylation, cells were treated with increasing concentrations of glucose, mannose or galactose. The experiments were carried out in duplicate (n=2).
(§2) U87 human glioma cancer cells were obtained from the American Type Culture Collection (Manassas, Va.) and maintained in a humidified atmosphere containing 5% CO2 at 37° C. Cells were routinely cultured in DMEM/F12 medium (Invitrogen Corp., Grand Island, N.Y.) supplemented with 10% heat inactivated fetal bovine serum (Hyclone Laboratories Inc., Logan, Utah), 50 IU/ml penicillin and […] streptomycin from GIBCO (Invitrogen). Cell viability experiments were carried out in U87 cells with 8000 cells/well in flat bottom 96 well plates. The cells were grown in low glucose (5.4 mM) DMEM/F12 media supplied with 10% FBS and antibiotics. 24 hours after plating, cells were treated with increasing concentration (1 to 10 mM) of 2-difluoro-D-glucose (DFG) for 72 hours in normoxic (21% O2) or hypoxic (approximately 0.1% O2) conditions. To test the competing ability of glucose, galactose and mannose with DFG, the cells were also treated with increasing concentration of the glucose (5, 10, and 20 mM), galactose (5, 10, and 20 mM) or mannose (0.1, 1, and 5 mM). The experiments were carried out in duplicate (n=2). After 72 hours of treatment, inhibition of cellular proliferation was assessed by the MTT assay. Absorbance was read at a wavelength of 570 nm using a V Max Micro plate reader by Molecular Devices, Inc. (Sunnyvale, Calif.). The cytoctoxicity of 2-DFG was calculated by normalization to the 100% viability of the control (untreated cells) and presented as percent control.

U87 cells [2] = assay: Transmission electron microscopy / detection of autophagosomes; format: cell-based, human
Protocol: FIGS. 16a through 16d provides electron micrographs of 2-DFG induced autophagy in U87 cells (5 mM, 72 h treatment, 5.6 mM low glucose media).
(§3) To test the ability of the 2-DFG to induce autophagic cell death, we monitored the increase in acidic vesicular organelles (AVO) using acridine orange staining in U87 cells treated with increasing concentrations of 2-DFG for 72 hours under hypoxia and normoxia. […] Therefore, targeting the energetic metabolism of cancer cells and the autophagic survival response using inhibitors of glycolysis is a promising therapeutic approach for the treatment of cancers that are dependent on glycolysis for survival.

U87 glioblastoma cells [3] = assay: U87 cell viability (MTT) assay under normoxia and hypoxia; format: cell-based, human; conditions: for IC50: Homo sapiens, U-87 MG, 72 h
Protocol: as §1, §2

U87 cells [4] = assay: Cell cycle analysis; format: cell-based, human; conditions: 5 mM, 72 h
U87 cells [5] = assay: Acridine orange staining of acidic vesicular organelles (AVO), autophagy; format: cell-based, human; conditions: 72 hours, increasing concentrations, hypoxia and normoxia
Protocol: FIGS. 14a through 14f provide the quantification of 2-DFG induced autophagy in U87 glioma cells after 72 h of normoxia treatment in 5.6 mM low glucose media using acridine orange-acid vesicular organelles (AVO) straining assay.
FIGS. 15a through 15f provide the quantification of 2-DFG induced autophagy in U87 glioma cells after 72 h of hypoxia treatment in 5.6 mM low glucose media using acridine orange-acid vesicular organelles (AVO) straining assay.
as §3

[6] = hypoxia (0.1% O2), 72 hours, low glucose media, read-out: Inhibition under Hypoxia (IC50, U87 cell viability)
[7] = normoxia (21% O2), 72 hours, low glucose media, read-out: Inhibition under Normoxia (IC50, U87 cell viability)

| SMILES | Antitumor activity in vivo (orthotopic glioma model) | Viability Protection by D-Mannose Under Hypoxia (IC50 shift) (U87 glioblastoma cells [1]) | Viability Protection by D-Galactose Under Hypoxia (IC50 shift) (U87 glioblastoma cells [1]) | Viability Protection by D-Glucose Under Hypoxia (IC50 shift) (U87 glioblastoma cells [1]) | Viability Protection by D-Mannose Under Normoxia (IC50 shift) (U87 glioblastoma cells [1]) | Viability Protection by D-Galactose Under Normoxia (IC50 shift) (U87 glioblastoma cells [1]) | Viability Protection by D-Glucose Under Normoxia (IC50 shift) (U87 glioblastoma cells [1]) | Stimulation of autophagy (detection of autophagosomes after treatment) (U87 cells [2]; U87 Glioblastoma cells, preliminary studies) | IC50 (U87 glioblastoma cells [3]; [6]) [µM] | IC50 (U87 glioblastoma cells [3]; [7]) [µM] | Cell cycle distribution: G2/M phase (U87 cells [4]) | Cell cycle distribution: Sub G0/G1 phase (U87 cells [4]) | Autophagosomes by electron microscopy (U87 cells [2]; 5 mM, 72 h treatment, normoxia) | Acidic vesicular organelles (AVO), acridine orange staining (U87 cells [5]) | IC50 (U87 glioblastoma cells [3]; hypoxic conditions (0.1% O2), read-out: IC50 (cytotoxicity in U87 cells)) [µM] | IC50 (U87 glioblastoma cells [3]; normoxic conditions (21% O2), read-out: IC50 (cytotoxicity in U87 cells)) [µM] | Concentration giving substantial inhibition of cellular growth (U87 glioblastoma cells [3]; hypoxic conditions) | Concentration required for substantial inhibition of cellular growth (U87 glioblastoma cells [3]; normoxic conditions) |
| --- | --- | --- | --- | --- | --- | --- | --- | --- | --- | --- | --- | --- | --- | --- | --- | --- | --- | --- |
| O=C[C@@H](F)[C@@H](O)[C@H](O)[C@H](O)CO [2-FM, 2-fluoro-2-deoxy-D-mannose] | comparable to that of temozolomide |  |  |  |  |  |  |  |  |  |  |  |  |  |  |  |  |  |
| O=C[C@H](F)[C@@H](O)[C@H](O)[C@H](O)CO [2-FG, 2-fluoro-2-deoxy-D-glucose] | comparable to that of temozolomide |  |  |  |  |  |  |  |  |  |  |  |  |  |  |  |  |  |
| O=CC[C@@H](O)[C@H](O)[C@H](O)CO [2-DG, 2-Deoxy-D-glucose, reference compound] | comparable to that of temozolomide | ++ (~1.5-2 mM IC50 shift after co-treatment with 0.1 mM of D-mannose) | − (0-0.5 mM IC50 shift after co-treatment with 5 mM of D-galactose.) | +++ (>5 mM IC50 shift after co-treatment with 5 mM of D-glucose) | +++ (>5 mM IC50 shift after co-treatment with 0.1 mM of D-mannose) | − (0-0.5 mM IC50 shift after co-treatment with 5 mM of D-galactose.) | + (~1 mM IC50 shift after co-treatment with 5 mM of D-glucose) | able to stimulate the process of autophagy | ≥ 1800 | ≥ 1800 |  |  |  |  |  |  |  |  |
| OC[C@H]1OC(O)C(F)(F)[C@@H](O)[C@@H]1O (stereo partly drawn) [DFG, 2-Deoxy-2,2-difluoro-D-arabino-hexopyranose] |  | − (0-0.5 mM IC50 shift after co-treatment with 0.1 mM of D-mannose) | − (0-0.5 mM IC50 shift after co-treatment with 5 mM of D-galactose.) | ++ (~1.5-2 mM IC50 shift after co-treatment with 5 mM of D-glucose) | + (~1 mM IC50 shift after co-treatment with 0.1 mM of D-mannose) | − (0-0.5 mM IC50 shift after co-treatment with 5 mM of D-galactose.) | + (~1 mM IC50 shift after co-treatment with 5 mM of D-glucose) |  | 1500 to 1800 | ≥ 1800 | significant increase in G2/M phase | no significant increase in Sub G0/G1 phase | extensive presence of autophagosomes | concentration dependent increase in acridine orange staining | 1200 | 2900 | lower than 4 mM | above 6 mM |
